The nature of data set [1]: Stability of human Adrenomedullin in human Citrate plasma at 24° C., quantified by hADM immunoassay (MR-ADM/CT-ADM). The following applies: for Average ADM recovery (N = 5) / Loss of immune reactivity %/h: human Citrate plasma; for Average ADM recovery (N = 5): 10 ng ADM/ml; for Average loss of immune reactivity: average over time points, human plasma, MR-ADM/CT-ADM sandwich assay. Format: in vitro ADME. On the procedure: At selected time points, aliquots were frozen at −20° C.

The conditions of data set [2]: using other assay methods (Hinson 2000); cited from earlier work.

Structures are written as SMILES.

In the case of `CC[C@H](C)[C@H](NC(=O)[C@H](CCC(N)=O)NC(=O)[C@H](Cc1c[nH]cn1)NC(=O)[C@H](C)NC(=O)[C@H](CC(C)C)NC(=O)[C@H](CCCCN)NC(=O)[C@H](CCC(N)=O)NC(=O)[C@@H](NC(=O)[C@@H](NC(=O)[C@@H]1CSSC[C@H](NC(=O)CNC(=O)[C@H](Cc2ccccc2)NC(=O)[C@H](CO)NC(=O)[C@H](CCCNC(=N)N)NC(=O)[C@H](CC(C)C)NC(=O)CNC(=O)[C@H](CCC(N)=O)NC(=O)[C@H](Cc2ccccc2)NC(=O)[C@H](CC(N)=O)NC(=O)[C@H](CC(N)=O)NC(=O)[C@H](CCSC)NC(=O)[C@H](CO)NC(=O)[C@H](CCC(N)=O)NC(=O)[C@H](CCCNC(=N)N)NC(=O)[C@@H](N)Cc2ccc(O)cc2)C(=O)N[C@@H](CCCNC(=N)N)C(=O)N[C@@H](Cc2ccccc2)C(=O)NCC(=O)N[C@@H]([C@@H](C)O)C(=O)N1)[C@@H](C)O)C(C)C)C(=O)N[C@@H](Cc1ccc(O)cc1)C(=O)N[C@@H](CCC(N)=O)C(=O)N[C@@H](Cc1ccccc1)C(=O)N[C@H](C(=O)N[C@@H](CC(=O)O)C(=O)N[C@@H](CCCCN)C(=O)N[C@@H](CC(=O)O)C(=O)N[C@@H](CCCCN)C(=O)N[C@@H](CC(=O)O)C(=O)N[C@@H](CC(N)=O)C(=O)N[C@H](C(=O)N[C@@H](C)C(=O)N1CCC[C@H]1C(=O)N[C@@H](CCCNC(=N)N)C(=O)N[C@@H](CO)C(=O)N[C@@H](CCCCN)C(=O)N[C@H](C(=O)N[C@@H](CO)C(=O)N1CCC[C@H]1C(=O)N[C@@H](CCC(N)=O)C(=O)NCC(=O)N[C@@H](Cc1ccc(O)cc1)C(N)=O)[C@@H](C)CC)C(C)C)[C@@H](C)O` [hADM], the “Average ADM recovery (N = 5)” value in data set [1] (0 h) came to 100; in data set [1] (2 h) it was 99.2; in data set [1] (4 h) it was 96.4; in data set [1] (8 h), 88.2. Further, the “Loss of immune reactivity %/h” value stood at 0.4 %/h in data set [1] (2 h), 0.8 %/h in data set [1] (4 h) and 1.5 %/h in data set [1] (8 h). Besides, the “Average loss of immune reactivity” value in data set [1] is reported as “Average: 0.9%/h”; in data set [1] (listed as ADM), 0.9 %/h. The plasma half life in data set [2] is given as 22 min.

Source of the values: patent US11726101B2, “Adrenomedullin assays and methods for determining mature adrenomedullin” (SPHINGOTEC GMBH, priority 2011, dated 2023).
